The results in this text go back to ChEMBL document CHEMBL1134625 (J Med Chem, 2001).

Among the targets are D(2) dopamine receptor (Homo sapiens, UniProt P14416); D(1A) dopamine receptor (Homo sapiens, UniProt P21728); Histamine H2 receptor (Homo sapiens, UniProt P25021); D(1B) dopamine receptor (Homo sapiens, UniProt P21918); Histamine H1 receptor (Homo sapiens, UniProt P35367); Vasopressin V1a receptor (Homo sapiens, UniProt P37288); D(3) dopamine receptor (Homo sapiens, UniProt P35462).

Experiment [1] has as its target 5-hydroxytryptamine receptor 1B (Homo sapiens, UniProt P28222).
A further experiment addresses T1, Adenosine receptor A3 (Homo sapiens, UniProt P0DMS8).
T1 sequence (P0DMS8 whole entry): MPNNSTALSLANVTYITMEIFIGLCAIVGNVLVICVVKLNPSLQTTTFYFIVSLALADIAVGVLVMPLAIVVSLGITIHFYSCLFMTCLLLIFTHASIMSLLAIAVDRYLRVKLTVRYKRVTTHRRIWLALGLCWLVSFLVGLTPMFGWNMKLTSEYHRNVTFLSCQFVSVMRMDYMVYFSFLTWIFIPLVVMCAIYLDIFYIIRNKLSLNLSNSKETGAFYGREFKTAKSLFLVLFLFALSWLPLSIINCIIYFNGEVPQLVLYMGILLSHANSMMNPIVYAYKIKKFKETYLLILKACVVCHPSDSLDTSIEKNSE

The target in experiment [2] is T2, 5-hydroxytryptamine receptor 1A (Homo sapiens, UniProt P08908).
T2 sequence (P08908 whole entry): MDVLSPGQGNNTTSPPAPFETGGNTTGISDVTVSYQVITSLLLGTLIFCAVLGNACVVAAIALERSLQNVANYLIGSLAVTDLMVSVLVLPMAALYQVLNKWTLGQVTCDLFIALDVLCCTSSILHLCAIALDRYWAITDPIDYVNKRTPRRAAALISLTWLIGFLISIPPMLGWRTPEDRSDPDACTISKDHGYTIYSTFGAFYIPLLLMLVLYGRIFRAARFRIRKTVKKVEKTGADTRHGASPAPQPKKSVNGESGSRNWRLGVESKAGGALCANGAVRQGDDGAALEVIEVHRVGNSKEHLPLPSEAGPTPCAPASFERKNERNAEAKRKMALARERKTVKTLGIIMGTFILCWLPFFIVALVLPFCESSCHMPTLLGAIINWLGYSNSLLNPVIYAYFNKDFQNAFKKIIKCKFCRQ

The target of experiment [3] is Sodium-dependent dopamine transporter (Homo sapiens, UniProt Q01959).
Experiment [4] concerns the target 5-hydroxytryptamine receptor 2A (Homo sapiens, UniProt P28223).
In experiment [5] the target is Sodium-dependent noradrenaline transporter (Homo sapiens, UniProt P23975).
For experiment [6], the target named is Voltage-gated L-type calcium channel (Homo sapiens, UniProt Q13936+Q13698+Q01668+O60840). The class given is protein assay.
Experiment [7] has as its target 5-hydroxytryptamine receptor 7 (Homo sapiens, UniProt P34969).
Experiment [8] concerns the target T3, 5-hydroxytryptamine receptor 2C (Homo sapiens, UniProt P28335).
T3 sequence (P28335 whole entry): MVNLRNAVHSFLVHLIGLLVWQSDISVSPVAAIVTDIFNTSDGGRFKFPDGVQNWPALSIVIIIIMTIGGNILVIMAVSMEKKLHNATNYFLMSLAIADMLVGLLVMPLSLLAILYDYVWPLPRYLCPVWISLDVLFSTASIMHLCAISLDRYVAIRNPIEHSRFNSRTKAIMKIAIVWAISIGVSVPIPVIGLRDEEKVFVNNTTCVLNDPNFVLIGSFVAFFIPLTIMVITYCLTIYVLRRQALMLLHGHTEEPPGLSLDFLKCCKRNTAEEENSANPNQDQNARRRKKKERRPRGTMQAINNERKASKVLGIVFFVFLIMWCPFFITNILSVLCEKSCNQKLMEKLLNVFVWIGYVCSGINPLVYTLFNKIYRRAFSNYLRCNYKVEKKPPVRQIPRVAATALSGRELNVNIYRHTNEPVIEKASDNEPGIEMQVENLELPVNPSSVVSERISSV

Chain of Sodium-dependent dopamine transporter (Q01959 whole entry): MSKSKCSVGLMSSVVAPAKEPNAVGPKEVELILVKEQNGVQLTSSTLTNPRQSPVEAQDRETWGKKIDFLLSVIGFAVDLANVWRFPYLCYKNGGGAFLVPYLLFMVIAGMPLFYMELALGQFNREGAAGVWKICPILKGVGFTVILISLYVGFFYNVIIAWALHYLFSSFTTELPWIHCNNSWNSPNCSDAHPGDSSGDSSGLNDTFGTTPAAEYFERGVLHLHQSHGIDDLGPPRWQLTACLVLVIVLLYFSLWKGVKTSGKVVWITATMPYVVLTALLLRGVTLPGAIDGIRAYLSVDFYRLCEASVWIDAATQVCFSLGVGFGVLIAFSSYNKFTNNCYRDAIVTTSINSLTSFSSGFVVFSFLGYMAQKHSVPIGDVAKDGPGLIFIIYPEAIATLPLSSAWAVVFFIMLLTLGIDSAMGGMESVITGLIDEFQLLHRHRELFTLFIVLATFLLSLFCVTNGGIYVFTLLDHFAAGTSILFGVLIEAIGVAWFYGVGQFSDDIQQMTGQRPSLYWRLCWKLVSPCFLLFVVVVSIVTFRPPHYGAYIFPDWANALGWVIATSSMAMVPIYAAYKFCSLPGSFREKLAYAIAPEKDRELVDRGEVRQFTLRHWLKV
Chain of D(1A) dopamine receptor (P21728 whole entry): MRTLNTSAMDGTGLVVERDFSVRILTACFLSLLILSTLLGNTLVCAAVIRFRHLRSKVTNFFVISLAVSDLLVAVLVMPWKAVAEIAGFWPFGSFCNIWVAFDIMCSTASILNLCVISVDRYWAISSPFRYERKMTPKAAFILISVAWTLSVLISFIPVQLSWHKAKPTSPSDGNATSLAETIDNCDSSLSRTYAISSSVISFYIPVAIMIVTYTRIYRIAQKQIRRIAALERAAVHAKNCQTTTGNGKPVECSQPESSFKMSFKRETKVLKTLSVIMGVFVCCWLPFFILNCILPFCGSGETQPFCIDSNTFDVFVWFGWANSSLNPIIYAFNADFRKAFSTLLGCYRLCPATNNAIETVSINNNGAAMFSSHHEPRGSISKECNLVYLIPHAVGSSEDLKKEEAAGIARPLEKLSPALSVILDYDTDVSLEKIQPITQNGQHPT
Chain of Histamine H2 receptor (P25021 whole entry): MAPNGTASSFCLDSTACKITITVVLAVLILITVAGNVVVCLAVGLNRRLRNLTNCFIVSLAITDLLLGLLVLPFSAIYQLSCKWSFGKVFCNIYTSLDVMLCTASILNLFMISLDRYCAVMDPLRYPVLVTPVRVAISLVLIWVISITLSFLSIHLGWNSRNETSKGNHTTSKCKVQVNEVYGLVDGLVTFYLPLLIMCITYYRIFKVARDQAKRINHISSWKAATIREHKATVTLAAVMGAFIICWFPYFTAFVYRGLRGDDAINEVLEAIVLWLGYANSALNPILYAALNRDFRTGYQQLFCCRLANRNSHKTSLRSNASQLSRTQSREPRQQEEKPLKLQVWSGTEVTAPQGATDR
Chain of 5-hydroxytryptamine receptor 1B (P28222 whole entry): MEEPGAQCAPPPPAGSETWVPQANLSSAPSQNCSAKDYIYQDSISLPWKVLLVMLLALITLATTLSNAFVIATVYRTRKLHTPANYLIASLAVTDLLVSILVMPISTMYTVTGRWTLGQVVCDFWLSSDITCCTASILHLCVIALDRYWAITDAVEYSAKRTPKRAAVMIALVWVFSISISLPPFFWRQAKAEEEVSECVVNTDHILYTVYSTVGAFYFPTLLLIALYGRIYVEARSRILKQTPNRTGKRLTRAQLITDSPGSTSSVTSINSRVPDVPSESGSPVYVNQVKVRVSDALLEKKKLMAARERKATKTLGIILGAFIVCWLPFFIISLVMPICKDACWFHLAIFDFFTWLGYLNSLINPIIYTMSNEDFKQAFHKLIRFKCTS
Chain of 5-hydroxytryptamine receptor 2A (P28223 whole entry): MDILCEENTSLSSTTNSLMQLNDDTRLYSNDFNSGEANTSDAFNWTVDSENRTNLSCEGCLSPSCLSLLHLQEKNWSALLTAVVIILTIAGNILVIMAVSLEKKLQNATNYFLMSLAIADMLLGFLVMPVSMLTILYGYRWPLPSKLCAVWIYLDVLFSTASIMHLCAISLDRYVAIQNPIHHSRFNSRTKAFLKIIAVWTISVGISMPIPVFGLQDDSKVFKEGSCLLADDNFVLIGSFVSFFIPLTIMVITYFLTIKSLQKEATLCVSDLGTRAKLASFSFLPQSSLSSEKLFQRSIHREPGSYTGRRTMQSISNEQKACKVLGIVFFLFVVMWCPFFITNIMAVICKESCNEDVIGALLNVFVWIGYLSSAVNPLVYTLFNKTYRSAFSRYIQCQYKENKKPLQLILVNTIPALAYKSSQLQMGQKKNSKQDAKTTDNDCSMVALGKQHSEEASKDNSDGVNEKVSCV
Chain of D(3) dopamine receptor (P35462 whole entry): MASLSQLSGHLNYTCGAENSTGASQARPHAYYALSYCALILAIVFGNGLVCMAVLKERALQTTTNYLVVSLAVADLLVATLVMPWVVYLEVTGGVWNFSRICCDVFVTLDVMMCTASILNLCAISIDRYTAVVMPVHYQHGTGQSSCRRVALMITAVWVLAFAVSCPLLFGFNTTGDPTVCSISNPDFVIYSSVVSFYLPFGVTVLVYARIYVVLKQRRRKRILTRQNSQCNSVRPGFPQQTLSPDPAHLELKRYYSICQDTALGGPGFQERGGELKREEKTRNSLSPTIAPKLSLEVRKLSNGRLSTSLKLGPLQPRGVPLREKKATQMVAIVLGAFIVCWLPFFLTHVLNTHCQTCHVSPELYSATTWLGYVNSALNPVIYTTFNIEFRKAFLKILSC
Chain of Histamine H1 receptor (P35367 whole entry): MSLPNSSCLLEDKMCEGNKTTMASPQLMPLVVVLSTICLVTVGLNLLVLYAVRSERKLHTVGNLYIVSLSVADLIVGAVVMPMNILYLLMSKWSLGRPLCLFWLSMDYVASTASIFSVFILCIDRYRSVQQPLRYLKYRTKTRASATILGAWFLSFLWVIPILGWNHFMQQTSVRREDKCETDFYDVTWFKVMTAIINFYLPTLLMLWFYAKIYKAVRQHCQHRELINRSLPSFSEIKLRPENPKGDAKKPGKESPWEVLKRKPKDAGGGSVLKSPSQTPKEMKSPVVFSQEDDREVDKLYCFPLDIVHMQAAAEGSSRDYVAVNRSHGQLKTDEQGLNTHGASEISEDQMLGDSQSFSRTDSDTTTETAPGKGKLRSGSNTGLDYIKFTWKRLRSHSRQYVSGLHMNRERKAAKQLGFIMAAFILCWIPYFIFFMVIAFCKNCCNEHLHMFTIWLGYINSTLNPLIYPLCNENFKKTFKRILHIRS
Chain of D(1B) dopamine receptor (P21918 whole entry): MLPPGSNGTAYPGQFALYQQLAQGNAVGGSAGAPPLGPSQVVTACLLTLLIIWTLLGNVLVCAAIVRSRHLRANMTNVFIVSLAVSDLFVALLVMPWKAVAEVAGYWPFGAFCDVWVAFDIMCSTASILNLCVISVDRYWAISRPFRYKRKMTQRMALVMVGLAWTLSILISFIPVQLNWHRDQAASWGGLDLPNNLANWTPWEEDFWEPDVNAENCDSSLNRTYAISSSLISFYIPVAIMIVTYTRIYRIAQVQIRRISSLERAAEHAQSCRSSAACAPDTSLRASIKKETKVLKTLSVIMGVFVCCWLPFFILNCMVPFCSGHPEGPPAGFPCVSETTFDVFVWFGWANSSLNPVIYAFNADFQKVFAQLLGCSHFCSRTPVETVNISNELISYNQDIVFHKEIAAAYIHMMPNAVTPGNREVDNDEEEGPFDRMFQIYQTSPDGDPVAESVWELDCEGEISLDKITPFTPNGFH
Chain of 5-hydroxytryptamine receptor 7 (P34969 whole entry): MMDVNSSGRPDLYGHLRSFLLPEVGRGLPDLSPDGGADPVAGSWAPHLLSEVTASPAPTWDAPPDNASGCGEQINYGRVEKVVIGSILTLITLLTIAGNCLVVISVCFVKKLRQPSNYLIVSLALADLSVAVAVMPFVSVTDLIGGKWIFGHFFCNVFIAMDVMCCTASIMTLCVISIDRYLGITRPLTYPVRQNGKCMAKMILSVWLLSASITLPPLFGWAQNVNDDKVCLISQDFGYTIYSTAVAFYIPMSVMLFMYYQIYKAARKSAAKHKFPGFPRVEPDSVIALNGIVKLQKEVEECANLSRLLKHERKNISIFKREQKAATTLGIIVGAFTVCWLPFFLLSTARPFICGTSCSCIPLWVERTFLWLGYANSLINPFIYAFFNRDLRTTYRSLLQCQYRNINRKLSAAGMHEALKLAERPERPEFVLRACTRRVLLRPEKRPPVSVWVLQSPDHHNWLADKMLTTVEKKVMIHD
Chain of Vasopressin V1a receptor (P37288 whole entry): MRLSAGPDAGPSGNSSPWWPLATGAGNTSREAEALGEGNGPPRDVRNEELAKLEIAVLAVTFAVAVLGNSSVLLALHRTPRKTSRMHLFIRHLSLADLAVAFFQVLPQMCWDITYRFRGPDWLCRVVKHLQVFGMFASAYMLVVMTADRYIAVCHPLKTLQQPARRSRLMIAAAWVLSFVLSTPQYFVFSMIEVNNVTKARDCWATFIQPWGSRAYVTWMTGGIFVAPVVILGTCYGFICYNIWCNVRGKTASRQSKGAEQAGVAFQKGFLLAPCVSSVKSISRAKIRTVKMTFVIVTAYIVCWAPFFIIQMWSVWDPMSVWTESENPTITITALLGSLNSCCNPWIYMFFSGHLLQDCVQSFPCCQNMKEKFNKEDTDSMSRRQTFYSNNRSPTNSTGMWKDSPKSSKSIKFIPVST

Take `N#Cc1ccc(CCOC(=O)NC2CCN(CCCC(c3ccc(F)cc3)c3ccc(F)cc3)CC2)cc1`: the IC50 in experiment [1] was 3580 nM; against D(2) dopamine receptor, 551 nM; on Adenosine receptor A3 it was 5980 nM; in [2] it was 985 nM; against D(1A) dopamine receptor, 376 nM; in experiment [3], 781 nM. Also, the IC50 against Histamine H2 receptor turned out to be 368 nM; at D(1B) dopamine receptor it was 513 nM; in experiment [4], 683 nM; in experiment [5], 1140 nM; on Histamine H1 receptor it was 454 nM; on Vasopressin V1a receptor it was 3650 nM. For the same molecule, the IC50 was determined as 284 nM in experiment [6], 998 nM in experiment [7], 2760 nM in experiment [8] and 538 nM against D(3) dopamine receptor.
